Test results: PubChem BioAssay (NCI)
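GI50 = concentration required for 50% inhibition of growth. TGI denotes the concentration required for complete inhibition of growth.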

Legend:
Assay in all cases: NCI tumour cell line growth inhibition, 384-well format
MDA-MB-468 breast = tested on: MDA-MB-468 breast
COLO 205 colon = tested on: COLO 205 colon
LOX IMVI melanoma = tested on: LOX IMVI melanoma
DU-145 prostate = tested on: DU-145 prostate
NCI-H322M lung = tested on: NCI-H322M lung
NCI/ADR-RES ovarian = tested on: NCI/ADR-RES ovarian
MDA-MB-231 breast = tested on: MDA-MB-231 breast
HOP-92 NSCLC = tested on: HOP-92 NSCLC
MOLT-4 leukemia = tested on: MOLT-4 leukemia
PC-3 prostate = tested on: PC-3 prostate
SF-268 CNS = tested on: SF-268 CNS
EKVX NSCLC = tested on: EKVX NSCLC
OVCAR-8 ovarian = tested on: OVCAR-8 ovarian
SK-MEL-28 melanoma = tested on: SK-MEL-28 melanoma
SK-MEL-5 melanoma = tested on: SK-MEL-5 melanoma
U251 glioblastoma = tested on: U251 glioblastoma
A549 NSCLC = tested on: A549 NSCLC
SK-MEL-2 melanoma = tested on: SK-MEL-2 melanoma
SF-539 CNS = tested on: SF-539 CNS
MCF7 breast = tested on: MCF7 breast
HOP-62 NSCLC = tested on: HOP-62 NSCLC
UACC-62 melanoma = tested on: UACC-62 melanoma
OVCAR-4 ovarian = tested on: OVCAR-4 ovarian
RPMI-8226 leukemia = tested on: RPMI-8226 leukemia
HCT-116 colon = tested on: HCT-116 colon
ACHN renal = tested on: ACHN renal
BT-549 breast = tested on: BT-549 breast
CAKI-1 renal = tested on: CAKI-1 renal
T-47D breast = tested on: T-47D breast
HT29 colon = tested on: HT29 colon
IGROV1 ovarian = tested on: IGROV1 ovarian
HCT-15 colon = tested on: HCT-15 colon
M14 melanoma = tested on: M14 melanoma
SN12C renal = tested on: SN12C renal
UO-31 renal = tested on: UO-31 renal
OVCAR-5 ovarian = tested on: OVCAR-5 ovarian
NCI-H23 lung = tested on: NCI-H23 lung
MDA-MB-435 melanoma = tested on: MDA-MB-435 melanoma
NCI-H522 lung = tested on: NCI-H522 lung
SW-620 colon = tested on: SW-620 colon
HCC-2998 colon = tested on: HCC-2998 colon
KM12 colon = tested on: KM12 colon
TK-10 renal = tested on: TK-10 renal
HL-60(TB) leukemia = tested on: HL-60(TB) leukemia
SNB-75 CNS = tested on: SNB-75 CNS
HS 578T breast = tested on: HS 578T breast
CCRF-CEM leukemia = tested on: CCRF-CEM leukemia
SNB-19 CNS = tested on: SNB-19 CNS
RXF 393 renal = tested on: RXF 393 renal
NCI-H460 NSCLC = tested on: NCI-H460 NSCLC
NCI-H226 lung = tested on: NCI-H226 lung
UACC-257 melanoma = tested on: UACC-257 melanoma
K-562 leukemia = tested on: K-562 leukemia
SF-295 CNS = tested on: SF-295 CNS
786-0 renal = tested on: 786-0 renal
OVCAR-3 ovarian = tested on: OVCAR-3 ovarian
A498 renal = tested on: A498 renal

Nc1cc(C(F)F)c(-c2nc(N3[C@@H]4CC[C@H]3COC4)nc(N3[C@@H]4CC[C@H]3COC4)n2)cn1
GI50 (MDA-MB-468 breast): 201 nM
TGI (MDA-MB-468 breast): 980 nM
GI50 (COLO 205 colon): 368 nM
TGI (COLO 205 colon): > 100 µM
GI50 (LOX IMVI melanoma): 464 nM
TGI (LOX IMVI melanoma): > 100 µM
GI50 (DU-145 prostate): 525 nM
TGI (DU-145 prostate): > 100 µM
GI50 (NCI-H322M lung): 398 nM
TGI (NCI-H322M lung): > 100 µM
GI50 (NCI/ADR-RES ovarian): 921 nM
TGI (NCI/ADR-RES ovarian): > 100 µM
GI50 (MDA-MB-231 breast): 338 nM
TGI (MDA-MB-231 breast): > 100 µM
GI50 (HOP-92 NSCLC): 560 nM
TGI (HOP-92 NSCLC): > 100 µM
GI50 (MOLT-4 leukemia): 158 nM
TGI (MOLT-4 leukemia): 9.69 µM
GI50 (PC-3 prostate): 253 nM
TGI (PC-3 prostate): > 100 µM
GI50 (SF-268 CNS): 1120 nM
TGI (SF-268 CNS): > 100 µM
GI50 (EKVX NSCLC): 345 nM
TGI (EKVX NSCLC): 12 µM
GI50 (OVCAR-8 ovarian): 545 nM
TGI (OVCAR-8 ovarian): > 100 µM
GI50 (SK-MEL-28 melanoma): 446 nM
TGI (SK-MEL-28 melanoma): > 100 µM
GI50 (SK-MEL-5 melanoma): 251 nM
TGI (SK-MEL-5 melanoma): 1530 nM
GI50 (U251 glioblastoma): 769 nM
TGI (U251 glioblastoma): > 100 µM
GI50 (A549 NSCLC): 338 nM
TGI (A549 NSCLC): > 100 µM
GI50 (SK-MEL-2 melanoma): 2120 nM
TGI (SK-MEL-2 melanoma): 9.78 µM
GI50 (SF-539 CNS): 451 nM
TGI (SF-539 CNS): > 100 µM
GI50 (MCF7 breast): 143 nM
TGI (MCF7 breast): > 100 µM
GI50 (HOP-62 NSCLC): 497 nM
TGI (HOP-62 NSCLC): 7.53 µM
GI50 (UACC-62 melanoma): 389 nM
TGI (UACC-62 melanoma): 5.93 µM
GI50 (OVCAR-4 ovarian): 178 nM
TGI (OVCAR-4 ovarian): 2210 nM
GI50 (RPMI-8226 leukemia): 28.7 nM
TGI (RPMI-8226 leukemia): 198 nM
GI50 (HCT-116 colon): 1440 nM
TGI (HCT-116 colon): > 100 µM
GI50 (ACHN renal): 426 nM
TGI (ACHN renal): > 100 µM
GI50 (BT-549 breast): 261 nM
TGI (BT-549 breast): 2640 nM
GI50 (CAKI-1 renal): 311 nM
TGI (CAKI-1 renal): 3.67 µM
GI50 (T-47D breast): 104 nM
TGI (T-47D breast): 509 nM
GI50 (HT29 colon): 4.21 µM
TGI (HT29 colon): > 100 µM
GI50 (IGROV1 ovarian): 188 nM
TGI (IGROV1 ovarian): 980 nM
GI50 (HCT-15 colon): 419 nM
TGI (HCT-15 colon): > 100 µM
GI50 (M14 melanoma): 358 nM
TGI (M14 melanoma): > 100 µM
GI50 (SN12C renal): 347 nM
TGI (SN12C renal): > 100 µM
GI50 (UO-31 renal): 216 nM
TGI (UO-31 renal): 796 nM
GI50 (OVCAR-5 ovarian): 718 nM
TGI (OVCAR-5 ovarian): > 100 µM
GI50 (NCI-H23 lung): 2180 nM
TGI (NCI-H23 lung): > 100 µM
GI50 (MDA-MB-435 melanoma): 499 nM
TGI (MDA-MB-435 melanoma): 32.2 µM
GI50 (NCI-H522 lung): 183 nM
TGI (NCI-H522 lung): 7.62 µM
GI50 (SW-620 colon): 1510 nM
TGI (SW-620 colon): > 100 µM
GI50 (HCC-2998 colon): 407 nM
TGI (HCC-2998 colon): > 100 µM
GI50 (KM12 colon): 320 nM
TGI (KM12 colon): > 100 µM
GI50 (TK-10 renal): 384 nM
TGI (TK-10 renal): 8.8 µM
GI50 (HL-60(TB) leukemia): 2530 nM
TGI (HL-60(TB) leukemia): > 100 µM
GI50 (SNB-75 CNS): 170 nM
TGI (SNB-75 CNS): 873 nM
GI50 (HS 578T breast): 138 nM
TGI (HS 578T breast): 687 nM
GI50 (CCRF-CEM leukemia): 301 nM
TGI (CCRF-CEM leukemia): 38 µM
GI50 (SNB-19 CNS): 3.03 µM
TGI (SNB-19 CNS): > 100 µM
GI50 (RXF 393 renal): 198 nM
TGI (RXF 393 renal): 1580 nM
GI50 (NCI-H460 NSCLC): 105 nM
TGI (NCI-H460 NSCLC): > 100 µM
GI50 (NCI-H226 lung): 196 nM
TGI (NCI-H226 lung): 2840 nM
GI50 (UACC-257 melanoma): 1500 nM
TGI (UACC-257 melanoma): > 100 µM
GI50 (K-562 leukemia): 523 nM
TGI (K-562 leukemia): > 100 µM
GI50 (SF-295 CNS): 215 nM
TGI (SF-295 CNS): 1930 nM
GI50 ([…]-0 renal): 639 nM
TGI (786-0 renal): > 100 µM
GI50 (OVCAR-3 ovarian): 349 nM
TGI (OVCAR-3 ovarian): > 100 µM
GI50 (A498 renal): 89.9 nM
TGI (A498 renal): 3.63 µM
